Source: paper PMC7773830, “Necator americanus Ancylostoma Secreted Protein-2 (Na-ASP-2) Binds an Ascaroside (ascr#3) in Its Fatty Acid Binding Site” (Frontiers in Chemistry, 2020)
Read-outs that look alike come from different tables or passages of the source.

Key:
Pry1 [1] = molecular target: T1, Pry1 (Saccharomyces cerevisiae, UniProt P47032); test: Microscale thermophoresis; conditions: His-tagged Pry1, N/A where there is no binding, mean ± SD of three experiments
T1 construct: made in house; host or cells: Escherichia coli BL21
T1 sequence (P47032 20-299): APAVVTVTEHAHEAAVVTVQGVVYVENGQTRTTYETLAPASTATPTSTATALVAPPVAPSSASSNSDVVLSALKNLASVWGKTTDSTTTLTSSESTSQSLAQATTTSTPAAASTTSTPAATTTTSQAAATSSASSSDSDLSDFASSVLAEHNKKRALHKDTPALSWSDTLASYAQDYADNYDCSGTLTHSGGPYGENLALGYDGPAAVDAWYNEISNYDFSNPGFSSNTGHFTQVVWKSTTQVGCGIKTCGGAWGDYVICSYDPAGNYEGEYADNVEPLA
Method: (§1) Microscale thermophoresis was performed using a Monolith NT.115 from Nanotemper Technologies (Munich, Germany) (Seidel et al., [2012]; Shang et al., [2012]; Zillner et al., [2012]). His-tagged protein (Pry1 or Na-ASP-2) was fluorescently labeled using the RED-tris-NTA His-tag protein labeling kit (Nanotemper Technologies). Labeled protein (Pry1 or Na-ASP-2) was subsequently added to serial dilution of unlabeled ligand (ascarosides or their fatty acid moieties) in binding buffer (20 mM Tris pH 7.5, 30 mM NaCl, 0.05% Triton X-100). Each sample was loaded into standard glass capillaries, and measurements were performed at 60% laser power setting. Dissociation constant Kd was obtained by plotting the normalized fluorescence (Fnorm) against the logarithm of ligand concentration. Experiments were performed in triplicates and the Kd model of the MO Affinity Analysis software (Nanotemper Technologies, Munich, Germany) was used for data fitting.
(§2) Figure 5 Na-ASP-2 selectively binds ascr#3 but not oscr#10. Binding of ascarosides and their fatty acid moieties by Pry1 and Na-ASP-2 as measured by microscale thermophoresis. (A,G) Palmitic acid; (B,H) ascr#3; (C,I) oscr#10; (D,J) (R)-8-hydroxynonanoic acid; (E,K) (R, E)-8-hydroxynon-2-enoic acid; (F,L) 9-hydroxynonanoic acid. Pry1 binds palmitic acid and free hydroxylated nanonoic acids with similar affinities but binds neither the ascarosides ascr#3 and oscr#10. Na-ASP-2 binds palmitic acid, ascr#3 and free hydroxylated nanonoic acids with similar affinities but not oscr#10. The Kd values are indicated in each figure with N/A (not applicable) where there is no binding. Data represent mean ± SD of three independent experiments.

Na-ASP-2 [2] = molecular target: T2, Na-ASP-2 (Necator americanus, UniProt Q7Z1H1); test: Microscale thermophoresis; assay type: binding
T2 sequence (Q7Z1H1 entry or part of it): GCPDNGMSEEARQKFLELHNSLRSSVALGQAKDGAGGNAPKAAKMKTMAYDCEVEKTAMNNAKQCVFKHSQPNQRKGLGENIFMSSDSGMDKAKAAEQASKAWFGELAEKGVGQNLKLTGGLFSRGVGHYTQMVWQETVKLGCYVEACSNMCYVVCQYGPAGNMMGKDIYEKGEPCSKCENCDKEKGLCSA
Method: as §1, §2

Na-ASP-2 [3] = molecular target: T2, Na-ASP-2; test: [3H]-cholesterol radioligand binding and competition assay; conditions: for competition with [3H]-cholesterol for binding to Na-ASP-2: unlabeled ligand vs 50 pmol [3H]-cholesterol, 100 pmol Na-ASP-2
Method: (§3) The radioligand binding assay was performed as described previously (Im et al., [2005]; Choudhary and Schneiter, [2012]). Hundred pmol of purified untagged CAP protein (Na-ASP-2 or Pry1) in binding buffer (20 mM Tris, pH 7.5, 30 mM NaCl, 0.05% Triton X-100) was incubated for 1 h at 30 °C with different concentrations of either [^3H]-cholesterol or [^3H]-palmitic acid. Protein was removed from unbound ligand by adsorption to Q-sepharose beads (GE Healthcare, USA), the beads were washed, protein was eluted and the protein-bound radioligand was quantified by scintillation counting. For competition binding assays, specified concentrations of unlabeled cholesterol, palmitic acid or ligands, were included in the binding reaction. Non-specific binding was determined by performing the assays without the addition of protein. Statistical significance of data was analyzed by multiple t-test (GraphPad Prism, La Jolla, CA).
Figure 3 Na-ASP-2 binds both cholesterol and free palmitic acid. (A) Ligand binding of [^3H]-cholesterol to Na-ASP-2. Purified Na-ASP-2 (100 pmol) was incubated with increasing concentrations of [^3H]-cholesterol (100–400 pmol), in absence and presence of 400 pmol of unlabeled cholesterol (chol). The protein was separated from the unbound ligand by adsorption to an anion-exchange matrix and the protein-bound radioligand was quantified by scintillation counting. […] Data represent mean ± SD of 3 independent experiments. (B) Competitive binding of unlabeled cholesterol (50 or 5,000 pmol) to Na-ASP-2. Binding of [^3H]-cholesterol (50 pmol) to Na-ASP-2 (100 pmol) was assessed in the presence of the indicated concentrations of unlabeled cholesterol (chol). Each data point is the average of duplicate assays and represents the amount of [^3H]-cholesterol bound relative to a control containing no unlabeled cholesterol. (C) Ligand binding of [^3H]-palmitic acid to Na-ASP-2. Purified Na-ASP-2 (100 pmol) was incubated with increasing concentrations of [^3H]-palmitic acid (100–400 pmol), in absence and presence of 400 pmol of unlabeled palmitic acid (pal). (D) Competitive binding of unlabeled palmitic acid (50 or 5,000 pmol) to Na-ASP-2. Binding of [^3H]-palmitic acid (50 pmol) to Na-ASP-2 (100 pmol) was assessed in the presence of the indicated concentration of unlabeled palmitic acid (pal). Each data point is the average of duplicate assays and represents the amount of [^3H]-palmitic acid bound relative to a control containing only labeled palmitic acid. […]
(§4) Figure 4 Binding of ligands to Na-ASP-2 and Pry1. […] Binding of [^3H]-cholesterol (50 pmol) to Na-ASP-2 (100 pmol) was assessed in the presence of (50 pmol and 500 pmol) of unlabeled ascarosides or fatty acid moieties (1-5) (B) Fatty acids moieties and ascr#3 compete with [^3H]-palmitic acid for binding to Na-ASP-2. […]

Na-ASP-2 [4] = molecular target: T2, Na-ASP-2; test: [3H]-palmitic acid radioligand binding and competition assay; conditions: for competition with [3H]-palmitic acid for binding to Na-ASP-2: 50 or 500 pmol unlabeled ligand vs 50 pmol [3H]-palmitic acid, 100 pmol Na-ASP-2
Method: as §3
Figure 3 Na-ASP-2 binds both cholesterol and free palmitic acid. (A) Ligand binding of [^3H]-cholesterol to Na-ASP-2. Purified Na-ASP-2 (100 pmol) was incubated with increasing concentrations of [^3H]-cholesterol (100–400 pmol), in absence and presence of 400 pmol of unlabeled cholesterol (chol). The protein was separated from the unbound ligand by adsorption to an anion-exchange matrix and the protein-bound radioligand was quantified by scintillation counting. […] Data represent mean ± SD of 3 independent experiments. […] Binding of [^3H]-cholesterol (50 pmol) to Na-ASP-2 (100 pmol) was assessed in the presence of the indicated concentrations of unlabeled cholesterol (chol). […] Binding of [^3H]-palmitic acid (50 pmol) to Na-ASP-2 (100 pmol) was assessed in the presence of the indicated concentration of unlabeled palmitic acid (pal). […]
as §4

Pry1 [5] = molecular target: T1, Pry1; test: [3H]-palmitic acid competition binding assay; conditions: 100 pmol Pry1; for competition with [3H]-palmitic acid for binding to Pry1, excess ligand: excess unlabeled ligand (500 pmol) vs 50 pmol [3H]-palmitic acid; for competition with [3H]-palmitic acid for binding to Pry1: unlabeled ligand vs 50 pmol [3H]-palmitic acid
Method: as §3
Figure 4 Binding of ligands to Na-ASP-2 and Pry1. (A) Free fatty acids and ascarosides fail to compete with [^3H]-cholesterol for binding to Na-ASP-2. Binding of [^3H]-cholesterol (50 pmol) to Na-ASP-2 (100 pmol) was assessed in the presence of (50 pmol and 500 pmol) of unlabeled ascarosides or fatty acid moieties (1-5) (B) Fatty acids moieties and ascr#3 compete with [^3H]-palmitic acid for binding to Na-ASP-2. (C) Only fatty acids moieties compete [^3H]-palmitic acid for binding to Pry1. Competitive binding was tested with either 50 or 500 pmol of the unlabeled ligands and 50 pmol of [^3H]-palmitic acid for binding to 100 pmol purified Na-ASP-2 or Pry1. The ascarosides tested are (1) (ascr#3) and (2) (oscr#10) while the fatty acids are 3 [(R)-8-hydroxynonanoic acid], 4 [(R, E)-8-hydroxynon-2-enoic acid], and 5 (9-hydroxynonanoic acid). Data represent mean ± SD of 3 independent experiments. Asterisks denote statistical significance relative to the control containing only the radiolabeled ligand and either purified Na-ASP-2 or Pry1. (**p < 0.001; *p < 0.01). n.s., not significant.

Bm-VAL-1 [6] = molecular target: Bm-VAL-1; set-up: method as in earlier work; conditions: ref Kelleher et al., 2014, Darwiche et al., 2016, 2018, Asojo et al., read-out: cholesterol binding affinity; cited from earlier work
Hp-VAL-4 = molecular target: Hp-VAL-4; set-up: method as in earlier work; conditions: ref Kelleher et al., 2014, Darwiche et al., 2016, 2018, Asojo et al., read-out: cholesterol binding affinity; cited from earlier work
Sm-VAL-4 = molecular target: Sm-VAL-4; set-up: method as in earlier work; conditions: ref Kelleher et al., 2014, Darwiche et al., 2016, 2018, Asojo et al., read-out: cholesterol binding affinity; cited from earlier work
Pry1 [7] = molecular target: Pry1; set-up: method as in earlier work; conditions: ref Kelleher et al., 2014, Darwiche et al., 2016, 2018, Asojo et al., read-out: Kd for palmitic acid; cited from earlier work
Bm-VAL-1 [8] = molecular target: Bm-VAL-1; set-up: method as in earlier work; conditions: ref Kelleher et al., 2014, Darwiche et al., 2016, 2018, Asojo et al., read-out: Kd for palmitic acid; cited from earlier work
tablysin-15 = conditions: ref Kelleher et al., 2014, Darwiche et al., 2016, 2018, Asojo et al., read-out: Kd for palmitic acid; cited from earlier work

O=C(O)CCCCCCCCO [9-hydroxynonanoic acid]
Kd (Pry1 [1]; read-out: Kd): 650 ± 1.7 µM | Kd (Na-ASP-2 [2]): 230 ± 2.5 µM

C[C@@H](O)CCCCCCC(=O)O [(R)-8-hydroxynonanoic acid]
Kd (Pry1 [1]; read-out: Kd): 600 ± 1.9 µM | Kd (Na-ASP-2 [2]): 500 ± 2.3 µM

C[C@@H](O)CCCC/C=C/C(=O)O [(R,E)-8-hydroxynon-2-enoic acid, (R, E)-8-hydroxynon-2-enoic acid]
Kd (Pry1 [1]; read-out: Kd): 900 ± 0.9 µM | Kd (Na-ASP-2 [2]): 290 ± 2 µM

C[C@H](CCCC/C=C/C(=O)O)O[C@@H]1O[C@@H](C)[C@H](O)C[C@H]1O [ascr#3]
competition with [3H]-cholesterol for binding to Na-ASP-2 (Na-ASP-2 [3]): neither ascarosides [ascr#3 (1) and oscr#10 (2)] nor fatty acids (3-5) competed | competition with [3H]-palmitic acid for binding to Na-ASP-2 (Na-ASP-2 [4]): competed | competition with [3H]-palmitic acid for binding to Pry1, excess ligand (Pry1 [5]): could not be competed | competition with [3H]-palmitic acid for binding to Pry1 (Pry1 [5]): neither ascr#3 (1) nor oscr#10 (2) bound | Kd (Pry1 [1]): does not bind | Kd (Na-ASP-2 [2]): 142 µM

CC(C)CCC[C@@H](C)[C@H]1CC[C@H]2[C@@H]3CC=C4C[C@@H](O)CC[C@]4(C)[C@H]3CC[C@]12C [cholesterol]
Kd (Na-ASP-2 [3]): 2.1 µM | competition with [3H]-cholesterol for binding to Na-ASP-2 (Na-ASP-2 [3]): reduced binding of the radioligand | Kd (Bm-VAL-1 [6]): 0.9 µM | Kd (Hp-VAL-4): 1.53 µM | Kd (Sm-VAL-4): 2.4 µM

C[C@@H]1O[C@@H](OCCCCCCCCC(=O)O)[C@H](O)C[C@H]1O [oscr#10]
competition with [3H]-cholesterol for binding to Na-ASP-2 (Na-ASP-2 [3]): neither ascarosides [ascr#3 (1) and oscr#10 (2)] nor fatty acids (3-5) competed | competition with [3H]-palmitic acid for binding to Pry1, excess ligand (Pry1 [5]): could not be competed | competition with [3H]-palmitic acid for binding to Pry1 (Pry1 [5]): neither ascr#3 (1) nor oscr#10 (2) bound | Kd (Pry1 [1]): does not bind | Kd (Na-ASP-2 [2]; microscale thermophoresis, His-tagged Na-ASP-2, N/A where there is no binding, mean ± SD of three experiments): does not bind

CCCCCCCCCCCCCCCC(=O)O [palmitic acid, reference compound]
Kd (Na-ASP-2 [4]): 95 µM | competition with [3H]-palmitic acid for binding to Na-ASP-2 (Na-ASP-2 [4]): reduced | Kd (Pry1 [1]; read-out: Kd): 120 ± 1.2 µM | Kd (Na-ASP-2 [2]): 220 ± 1 µM | Kd (Pry1 [7]): 112 µM | Kd (Bm-VAL-1 [8]): 83 µM | Kd (tablysin-15): 94 µM
